Data from paper PMC8956739, “A synthetic lipopeptide targeting top-priority multidrug-resistant Gram-negative pathogens” (Nature Communications, 2022).
≈ marks a conversion by molar mass, not a printed value. Where “and” joins values, the source holds several entries; their conditions need not be identical. Equal values may be shown once. Residues, ends and D or L forms follow the SMILES beside them.

Tests used:
[1] = system: P. aeruginosa FADDI-PA038; format: cell-based, Pseudomonas aeruginosa; conditions: FADDI-PA038
Protocol: (§1) MICs were determined in cation-adjusted Mueller–Hinton broth (CaMHB) by the broth micro-dilution method against ATCC strains and clinical isolates. MICs in the presence of Survanta® were determined as described above against P. aeruginosa ATCC 27853. In the 100 μL of fresh CaMHB containing polymyxins, 10% Survanta® (v/v, 2.5 mg/mL phospholipids) was added. MICs in the presence and absence of Survanta® were compared to determine the effect of binding to lung surfactant on the antibacterial activity of polymyxins.

[2] = system: P. aeruginosa FADDI-PA025; format: cell-based, Pseudomonas aeruginosa; conditions: FADDI-PA025
Protocol: as §1

P. aeruginosa ATCC 27853 [3] = format: cell-based, Pseudomonas aeruginosa; conditions: ATCC 27853
Protocol: as §1

P. aeruginosa ATCC 27853 [4] = test: Neutropenic mouse bloodstream infection model; format: in vivo; conditions: single IV dose 4 mg/kg; for Log10 CFU/mL blood at 4 h, Mean / Δlog10 CFU/mL blood (mean) / Log10 CFU/mL blood at 4 h, single mouse: 4 h; for Δlog10 CFU/mL blood (mean): treated minus control, mean of replicates; for Δlog10 CFU/mL blood (mean) / Log10 CFU/mL blood at 4 h, single mouse / Delta Log10 CFU/mL blood at 4 h, single mouse: 4 mg/kg; for Delta Log10 CFU/mL blood at 4 h, single mouse: treated mouse minus mean of vehicle mice
Protocol: The experimental methodology for the neutropenic mouse bloodstream infection model was described previously. Briefly, 7-week-old female Swiss mice (22–28 g) were rendered neutropenic by intraperitoneal administration of cyclophosphamide, 4 days (150 mg/kg) and 1 day (100 mg/kg) prior to inoculation. Bloodstream infection was established by intravenous administration of a 50 µL bolus of early log-phase bacterial suspension (4 × 10^8 CFU/mL). Lipopeptide solutions were prepared at 1 mg/mL (free base) in sterile saline. At 2 h after inoculation, mice (n = 3) were injected intravenously with lipopeptide solution at 4 mg/kg (free base) or saline control. At 0 and 4 h after administration, blood was collected, diluted serially in sterile saline, and plated on nutrient agar plates. Agar plates were incubated at 37 °C overnight for bacterial colony counting and the bacterial load in the blood (log10 CFU/mL) in each mouse was calculated. In vivo efficacy was calculated as the difference of the log10 CFU/mL blood values between the treated mice and the saline-treated mice at 4 h post dosing (Δlog10 CFU/mL blood = log10 [treated] CFU/mL blood − log10[control] CFU/mL blood).

Swiss mice, kidney = test: Nephrotoxicity in mice (kidney histopathology); format: in vivo, mouse; conditions: for Kidney histopathology (SQS Score): 72 mg/kg/d subcutaneously in six divided doses every 2 h, n = 3; for Kidney histopathology, mice with the SQS score: mouse, in vivo
Protocol: The experimental methodology has been previously reported by our group. Briefly, individual lipopeptide solutions were prepared in sterile saline (6 mg/mL). Swiss mice (female, 7-week-old, 22–28 g) were subcutaneously administered at 12 mg/kg in, 6 doses every 2 h to reach a total dose of 72 mg/kg (n = 3). For high-dose nephrotoxicity experiments, mice were intraperitoneally administered at 20 or 25 mg/kg, in 6 doses every 2 h to reach a total dose of 120 mg/kg (n = 6) or 150 mg/kg (n = 3). At 20 h after the last dose, the right kidney from each mouse was collected and placed in 10% buffered (pH 7.4) formalin (Sigma-Aldrich, Castle Hill, NSW, Australia). The kidneys were subjected to histological examination at the Australian Phenomics Network-Histopathology and Organ Pathology (University of Melbourne, Parkville, VIC, Australia), who was blind to the treatment groups.

A. baumannii ATCC 19606 = format: cell-based, Acinetobacter baumannii; conditions: ATCC 19606
Protocol: as §1

A. baumannii FADDI-AB030 = format: cell-based, Acinetobacter baumannii; conditions: FADDI-AB030
Protocol: as §1

A. baumannii FADDI-AB034 = format: cell-based, Acinetobacter baumannii; conditions: FADDI-AB034
Protocol: as §1

[5] = system: K. pneumoniae FADDI-KP032; format: cell-based, Klebsiella pneumoniae; conditions: FADDI-KP032
Protocol: as §1

[6] = system: K. pneumoniae FADDI-KP065; format: cell-based, Klebsiella pneumoniae; conditions: FADDI-KP065
Protocol: as §1

Structure (SMILES)	MIC P. aeruginosa FADDI-PA038 [1] [mg/L]	MIC P. aeruginosa FADDI-PA025 [2] [mg/L]	MIC P. aeruginosa ATCC 27853 (P. aeruginosa ATCC 27853 [3]) [mg/L]	Log10 CFU/mL blood at 4 h, Mean (P. aeruginosa ATCC 27853 [4]) [Log10 CFU/mL blood]	Δlog10 CFU/mL blood (mean) (P. aeruginosa ATCC 27853 [4]) [log10 CFU/mL blood]	Log10 CFU/mL blood at 4 h, single mouse (P. aeruginosa ATCC 27853 [4])	Delta Log10 CFU/mL blood at 4 h, single mouse (P. aeruginosa ATCC 27853 [4])	Kidney histopathology (SQS Score) (Swiss mice, kidney)	Kidney histopathology, mice with the SQS score (Swiss mice, kidney)	MIC A. baumannii ATCC 19606 (A. baumannii ATCC 19606) [mg/L]	MIC A. baumannii FADDI-AB030 (A. baumannii FADDI-AB030) [mg/L]	MIC A. baumannii FADDI-AB034 (A. baumannii FADDI-AB034) [mg/L]	MIC K. pneumoniae FADDI-KP032 [5] [mg/L]	MIC K. pneumoniae FADDI-KP065 [6] [mg/L]
CCCCCCCCC(=O)N[C@@H](CCN)C(=O)N[C@H](C(=O)N[C@@H](CN)C(=O)N[C@H]1CCNC(=O)[C@H]([C@@H](C)O)NC(=O)[C@H](CCN)NC(=O)[C@H](CCN)NC(=O)[C@H](CC)NC(=O)[C@@H](CC(C)C)NC(=O)[C@H](CCN)NC1=O)[C@@H](C)O [Lipopeptide F314] (HELM PEPTIDE1{[CCCCCCCCC(=O)[*:2]].[Dab].T.[NC[C@H](N[*:1])C(=O)[*:2]].[Dab].[Dab].[dL].[Abu].[Dab].[Dab].T}$PEPTIDE1,PEPTIDE1,5:R3-11:R2$$$V2.0)	2 (≈ 1.77 µM)	>32	1 (≈ 0.887 µM)	4.33	−2.82	4.52 Log10 CFU/mL blood and 4.04 Log10 CFU/mL blood and 4.42 Log10 CFU/mL blood	-2.63 Log10 CFU/mL blood and -3.10 Log10 CFU/mL blood and -2.72 Log10 CFU/mL blood	+1 (SQS + 1 = mild damage (overall score, 1 to <15))	3/3	0.5 (≈ 0.443 µM)	0.5 (≈ 0.443 µM)	2 (≈ 1.77 µM)	<0.125	0.25 (≈ 0.222 µM)
CCCCCCCC(=O)N[C@@H](CCN)C(=O)N[C@H](C(=O)N[C@@H](CCN)C(=O)N[C@H]1CCNC(=O)[C@H]([C@@H](C)O)NC(=O)[C@H](CCN)NC(=O)[C@H](CCN)NC(=O)[C@H](CO)NC(=O)[C@@H](CC(C)C)NC(=O)[C@H](CCN)NC1=O)[C@@H](C)O [Lipopeptide F227] (HELM PEPTIDE1{[CCCCCCCC(=O)[*:2]].[Dab].T.[Dab].[Dab].[Dab].[dL].S.[Dab].[Dab].T}$PEPTIDE1,PEPTIDE1,5:R3-11:R2$$$V2.0)	>32	>32	0.5 (≈ 0.443 µM)	6.47	−1.04	6.74 Log10 CFU/mL blood and 5.57 Log10 CFU/mL blood and 7.10 Log10 CFU/mL blood	-0.77 Log10 CFU/mL blood and -1.95 Log10 CFU/mL blood and -0.41 Log10 CFU/mL blood	0 (SQS 0 = no significant change (overall score, <1))	3/3	8 (≈ 7.08 µM)	4 (≈ 3.54 µM)	4 (≈ 3.54 µM)	0.25 (≈ 0.221 µM)	0.25 (≈ 0.221 µM)
CCCCCCCC(=O)N[C@@H](CCN)C(=O)N[C@H](C(=O)N[C@@H](CN)C(=O)N[C@H]1CCNC(=O)[C@H]([C@@H](C)O)NC(=O)[C@H](CCN)NC(=O)[C@H](CCN)NC(=O)[C@H](C)NC(=O)[C@@H](CC(C)C)NC(=O)[C@H](CCN)NC1=O)[C@@H](C)O [Lipopeptide F271] (HELM PEPTIDE1{[CCCCCCCC(=O)[*:2]].[Dab].T.[NC[C@H](N[*:1])C(=O)[*:2]].[Dab].[Dab].[dL].A.[Dab].[Dab].T}$PEPTIDE1,PEPTIDE1,5:R3-11:R2$$$V2.0)	1 (≈ 0.91 µM)	16 (≈ 14.6 µM)	0.5 (≈ 0.455 µM)	5.18	−2.27	5.01 Log10 CFU/mL blood and 5.37 Log10 CFU/mL blood and 5.15 Log10 CFU/mL blood	-2.43 Log10 CFU/mL blood and -2.08 Log10 CFU/mL blood and -2.30 Log10 CFU/mL blood	0 (SQS 0 = no significant change (overall score, <1))	3/3	0.5 (≈ 0.455 µM)	0.25 (≈ 0.227 µM)	0.25 (≈ 0.227 µM)	<0.125	<0.125
CCCCCCCC(=O)N[C@@H](CCN)C(=O)N[C@H](C(=O)N[C@H](CCN)C(=O)N[C@H]1CCNC(=O)[C@H]([C@@H](C)O)NC(=O)[C@H](CCN)NC(=O)[C@H](CCN)NC(=O)[C@H]([C@@H](C)O)NC(=O)[C@@H](CC(C)C)NC(=O)[C@H](CCN)NC1=O)[C@@H](C)O [Lipopeptide F085] (HELM PEPTIDE1{[CCCCCCCC(=O)[*:2]].[Dab].T.[NCC[C@@H](N[*:1])C(=O)[*:2]].[Dab].[Dab].[dL].T.[Dab].[Dab].T}$PEPTIDE1,PEPTIDE1,5:R3-11:R2$$$V2.0)	0.5 (≈ 0.437 µM)	8 (≈ 7 µM)	0.5 (≈ 0.437 µM)	2.97	−2.16	3.39 Log10 CFU/mL blood and 3.30 Log10 CFU/mL blood and 2.20 Log10 CFU/mL blood	-1.73 Log10 CFU/mL blood and -1.83 Log10 CFU/mL blood and -2.92 Log10 CFU/mL blood	+2 (SQS + 2 = mild to moderate damage (overall score, 15 to <30))	2/2	1 (≈ 0.875 µM)	0.25 (≈ 0.219 µM)	2 (≈ 1.75 µM)	0.25 (≈ 0.219 µM)	<0.125
CC[C@@H]1NC(=O)[C@@H](CC(C)C)NC(=O)[C@H](CCN)NC(=O)[C@@H](NC(=O)[C@H](CN)NC(=O)[C@@H](NC(=O)[C@H](CCN)NC(=O)c2ccc(C)cc2)[C@@H](C)O)CCNC(=O)[C@H]([C@@H](C)O)NC(=O)[C@H](CCN)NC(=O)[C@H](CCN)NC1=O [Lipopeptide F383] (HELM PEPTIDE1{[Cc1ccc(C(=O)[*:2])cc1].[Dab].T.[NC[C@H](N[*:1])C(=O)[*:2]].[Dab].[Dab].[dL].[Abu].[Dab].[Dab].T}$PEPTIDE1,PEPTIDE1,5:R3-11:R2$$$V2.0)	1 (≈ 0.905 µM)	2 (≈ 1.81 µM)	0.5 (≈ 0.452 µM)	4.91	−3.02	5.76 Log10 CFU/mL blood and 4.40 Log10 CFU/mL blood and 4.59 Log10 CFU/mL blood	-2.18 Log10 CFU/mL blood and -3.54 Log10 CFU/mL blood and -3.35 Log10 CFU/mL blood	0 (SQS 0 = no significant change (overall score, <1))	3/3	2 (≈ 1.81 µM)	2 (≈ 1.81 µM)	2 (≈ 1.81 µM)	1 (≈ 0.905 µM)	1 (≈ 0.905 µM)
